Target: PKCδ-C1b (Mus musculus, UniProt P28867)
Assay: Kd measured in the peptide-phospholipid composition used for NMR
Format: binding

Sequence of PKCδ-C1b (P28867 231-281 limits assumed): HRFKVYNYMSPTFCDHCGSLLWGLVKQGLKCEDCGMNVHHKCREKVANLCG

CCCC(=O)O[C@@H]1[C@@H](C)[C@@]2(O)[C@@H](C=C(CO)C[C@]3(O)C(=O)C(C)=C[C@@H]23)[C@@H]2C(C)(C)[C@]12OC(=O)CCC [phorbol 12,13-dibutyrate]
Kd: 1.5 nM
